# Legend:
# [1] = Therapeutic index, ratio of TC50 for human TZM-bl cells to IC50 for antiviral activity against HIV-1 NL4-3 (X4) pseudovirus infected in human TZM-bl cells assessed as reduction in viral infectivity; format: toxicity, cell-based
# [2] = organism: Homo sapiens; test: Selectivity index, ratio of IC50 for inhibition of dopamine D2 receptor (unknown origin) to IC50 for antagonist activity at human CXCR4 receptor expressed in CCRF-CEM cells; format: cell-based
# [3] = biological target: Mu-type opioid receptor (Homo sapiens, UniProt P35372); test: Inhibition of mu opioid receptor (unknown origin)
# Sequence of Mu-type opioid receptor (P35372 whole entry): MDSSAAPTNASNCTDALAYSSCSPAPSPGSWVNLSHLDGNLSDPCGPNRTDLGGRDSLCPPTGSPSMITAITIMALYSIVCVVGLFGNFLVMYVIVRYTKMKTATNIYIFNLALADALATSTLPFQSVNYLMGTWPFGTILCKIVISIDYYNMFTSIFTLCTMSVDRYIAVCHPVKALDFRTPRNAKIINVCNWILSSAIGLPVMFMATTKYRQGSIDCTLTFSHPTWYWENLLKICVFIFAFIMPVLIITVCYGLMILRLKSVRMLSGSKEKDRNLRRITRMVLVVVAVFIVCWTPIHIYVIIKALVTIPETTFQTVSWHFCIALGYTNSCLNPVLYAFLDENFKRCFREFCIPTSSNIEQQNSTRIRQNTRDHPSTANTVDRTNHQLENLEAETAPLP
# [4] = biological target: C-X-C chemokine receptor type 1 (Homo sapiens) (UniProt P25024); test: Inhibition of human CXCR1 at 10 uM relative to control
# Sequence of C-X-C chemokine receptor type 1 (Homo sapiens) (P25024 whole entry): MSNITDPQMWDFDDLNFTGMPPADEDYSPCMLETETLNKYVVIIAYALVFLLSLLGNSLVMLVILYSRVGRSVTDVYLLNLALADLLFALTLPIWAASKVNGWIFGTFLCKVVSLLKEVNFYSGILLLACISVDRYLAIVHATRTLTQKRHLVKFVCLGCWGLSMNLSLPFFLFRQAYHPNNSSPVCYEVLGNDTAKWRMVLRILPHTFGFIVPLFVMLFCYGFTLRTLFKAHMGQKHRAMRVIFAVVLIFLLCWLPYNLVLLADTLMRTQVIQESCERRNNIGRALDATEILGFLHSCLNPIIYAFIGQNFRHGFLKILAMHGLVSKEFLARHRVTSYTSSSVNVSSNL
# [5] = biological target: Kappa-type opioid receptor (Homo sapiens, UniProt P41145); test: Inhibition of kappa opioid receptor (unknown origin)
# Sequence of Kappa-type opioid receptor (P41145 whole entry): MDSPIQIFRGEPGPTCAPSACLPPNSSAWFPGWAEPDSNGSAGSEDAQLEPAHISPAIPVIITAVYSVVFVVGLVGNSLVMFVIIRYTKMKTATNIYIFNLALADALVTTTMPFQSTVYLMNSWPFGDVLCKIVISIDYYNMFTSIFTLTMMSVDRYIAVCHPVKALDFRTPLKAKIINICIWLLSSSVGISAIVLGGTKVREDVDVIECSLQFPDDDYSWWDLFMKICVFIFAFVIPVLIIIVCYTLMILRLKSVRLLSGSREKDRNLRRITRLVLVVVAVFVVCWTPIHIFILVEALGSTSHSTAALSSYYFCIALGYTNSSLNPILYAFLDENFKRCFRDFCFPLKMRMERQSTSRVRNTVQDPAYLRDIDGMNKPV
# [6] = biological target: C-C chemokine receptor type 4 (Homo sapiens) (UniProt P51679); test: Inhibition of human CCR4 at 10 uM relative to control
# Sequence of C-C chemokine receptor type 4 (Homo sapiens) (P51679 whole entry): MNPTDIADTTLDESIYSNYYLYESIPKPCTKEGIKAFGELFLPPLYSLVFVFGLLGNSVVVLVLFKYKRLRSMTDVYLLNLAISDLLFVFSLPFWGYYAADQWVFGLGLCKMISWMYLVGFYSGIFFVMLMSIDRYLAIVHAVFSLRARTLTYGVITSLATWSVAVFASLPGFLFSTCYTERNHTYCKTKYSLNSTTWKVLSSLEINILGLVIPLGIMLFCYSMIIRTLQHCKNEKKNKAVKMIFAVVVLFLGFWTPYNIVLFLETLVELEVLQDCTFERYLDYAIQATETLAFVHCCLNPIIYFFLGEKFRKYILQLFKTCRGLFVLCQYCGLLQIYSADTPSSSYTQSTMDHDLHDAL
# [7] = Permeability of compound at pH 5.5 incubated for 4 hrs by PAMPA assay; format: ADME; conditions: read-out: permeability
# [8] = biological target: C-X-C chemokine receptor type 2 (Homo sapiens) (UniProt P25025); test: Inhibition of human CXCR2 at 10 uM relative to control
# Sequence of C-X-C chemokine receptor type 2 (Homo sapiens) (P25025 whole entry): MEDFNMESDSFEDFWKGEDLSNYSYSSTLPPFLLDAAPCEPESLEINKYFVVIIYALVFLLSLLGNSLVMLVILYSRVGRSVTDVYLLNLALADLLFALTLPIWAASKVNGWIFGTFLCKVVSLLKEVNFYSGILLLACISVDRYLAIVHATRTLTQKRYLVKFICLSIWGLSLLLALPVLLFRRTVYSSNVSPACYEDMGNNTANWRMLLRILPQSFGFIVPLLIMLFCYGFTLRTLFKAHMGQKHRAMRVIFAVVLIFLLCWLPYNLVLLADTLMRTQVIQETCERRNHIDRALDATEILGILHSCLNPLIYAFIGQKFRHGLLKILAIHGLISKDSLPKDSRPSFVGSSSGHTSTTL
# [9] = AUC(0 to 8 h) in mouse plasma at 10 mg/kg, po measured at 24 hrs by LC-MS/MS analysis; format: ADME, organism-based; parameters: route oral, dose 10 mg/kg, time 24 hrs; conditions: in vivo
# [10] = Volume of distribution in mouse at 3 mg/kg, measured at 24 hrs by LC-MS analysis; format: ADME, organism-based; conditions: in vivo
# [11] = AUC(0 to 8 h) in mouse plasma at 30 mg/kg, po measured at 24 hrs by LC-MS/MS analysis; format: ADME, organism-based; parameters: route oral, time 24 hrs, dose 30 mg/kg; conditions: in vivo
# [12] = Metabolic stability in human liver microsomes assessed compound remaining measured after 10 mins in presence of NADPH; format: ADME, Microsome; conditions: read-out: Stability
# [13] = organism: Homo sapiens; test: Selectivity index, ratio of IC50 for inhibition of alpha 2A adrenergic receptor (unknown origin) to IC50 for antagonist activity at human CXCR4 receptor expressed in CCRF-CEM cells; format: cell-based
# [14] = biological target: Voltage-gated inwardly rectifying potassium channel KCNH2 (Homo sapiens, UniProt Q12809); test: Inhibition of human ERG by [3H]]Astemizole binding assay; format: toxicity
# Sequence of Voltage-gated inwardly rectifying potassium channel KCNH2 (Q12809 whole entry): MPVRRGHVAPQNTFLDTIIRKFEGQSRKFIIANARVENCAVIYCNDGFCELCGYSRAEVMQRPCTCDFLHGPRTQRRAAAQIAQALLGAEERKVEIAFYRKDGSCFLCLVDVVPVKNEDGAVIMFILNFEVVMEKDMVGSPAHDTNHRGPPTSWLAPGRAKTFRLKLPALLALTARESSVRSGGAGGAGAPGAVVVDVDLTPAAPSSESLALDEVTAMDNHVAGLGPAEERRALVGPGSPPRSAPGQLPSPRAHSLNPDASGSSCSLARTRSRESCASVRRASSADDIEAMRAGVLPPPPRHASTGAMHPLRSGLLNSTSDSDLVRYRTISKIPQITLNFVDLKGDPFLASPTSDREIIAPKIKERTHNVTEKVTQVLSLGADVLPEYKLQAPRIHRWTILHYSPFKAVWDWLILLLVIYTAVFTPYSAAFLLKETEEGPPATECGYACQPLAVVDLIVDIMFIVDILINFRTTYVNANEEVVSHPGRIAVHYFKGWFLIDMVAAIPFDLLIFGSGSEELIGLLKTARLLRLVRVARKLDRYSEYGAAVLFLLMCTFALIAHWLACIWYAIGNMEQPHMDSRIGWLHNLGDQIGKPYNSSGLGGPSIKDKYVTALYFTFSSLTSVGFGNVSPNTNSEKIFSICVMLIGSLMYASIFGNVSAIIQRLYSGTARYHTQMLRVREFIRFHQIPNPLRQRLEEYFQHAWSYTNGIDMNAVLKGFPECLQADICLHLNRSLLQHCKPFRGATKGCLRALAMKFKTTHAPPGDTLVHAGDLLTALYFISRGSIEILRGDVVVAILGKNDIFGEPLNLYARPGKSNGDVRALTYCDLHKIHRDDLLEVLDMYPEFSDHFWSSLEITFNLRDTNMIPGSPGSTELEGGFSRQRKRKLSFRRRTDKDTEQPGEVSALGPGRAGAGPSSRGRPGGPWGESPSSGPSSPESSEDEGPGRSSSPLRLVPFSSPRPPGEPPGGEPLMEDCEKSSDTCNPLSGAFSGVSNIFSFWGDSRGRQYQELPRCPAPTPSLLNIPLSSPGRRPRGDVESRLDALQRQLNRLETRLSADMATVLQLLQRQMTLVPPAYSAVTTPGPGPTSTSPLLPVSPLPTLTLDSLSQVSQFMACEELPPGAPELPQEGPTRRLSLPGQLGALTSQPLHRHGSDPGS
# [15] = biological target: T1, Alpha-2A adrenergic receptor (Homo sapiens, UniProt P08913); test: Inhibition of alpha 2A adrenergic receptor (unknown origin)
# T1 sequence (P08913 whole entry): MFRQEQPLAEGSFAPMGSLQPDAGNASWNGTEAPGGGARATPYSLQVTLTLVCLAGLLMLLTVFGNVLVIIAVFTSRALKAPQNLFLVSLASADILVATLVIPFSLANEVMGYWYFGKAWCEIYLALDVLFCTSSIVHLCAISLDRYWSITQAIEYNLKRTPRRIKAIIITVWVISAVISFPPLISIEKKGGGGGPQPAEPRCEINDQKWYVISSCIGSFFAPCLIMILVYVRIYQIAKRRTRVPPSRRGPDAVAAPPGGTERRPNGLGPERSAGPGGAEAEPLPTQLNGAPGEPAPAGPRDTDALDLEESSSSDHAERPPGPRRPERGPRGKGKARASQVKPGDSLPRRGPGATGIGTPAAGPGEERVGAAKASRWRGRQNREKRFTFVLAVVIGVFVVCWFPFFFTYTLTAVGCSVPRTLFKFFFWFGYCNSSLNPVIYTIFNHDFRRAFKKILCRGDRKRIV
# [16] = Cmax in mouse at 3 mg/kg, iv measured after 8 hrs by LC-MS/MS analysis; format: ADME, organism-based; parameters: route intravenous, time 8 hrs, dose 3 mg/kg; conditions: in vivo
# [17] = biological target: Cytochrome P450 2C9 (Homo sapiens, UniProt P11712); test: Inhibition of CYP2C9 (unknown origin); format: ADME
# Sequence of Cytochrome P450 2C9 (P11712 whole entry): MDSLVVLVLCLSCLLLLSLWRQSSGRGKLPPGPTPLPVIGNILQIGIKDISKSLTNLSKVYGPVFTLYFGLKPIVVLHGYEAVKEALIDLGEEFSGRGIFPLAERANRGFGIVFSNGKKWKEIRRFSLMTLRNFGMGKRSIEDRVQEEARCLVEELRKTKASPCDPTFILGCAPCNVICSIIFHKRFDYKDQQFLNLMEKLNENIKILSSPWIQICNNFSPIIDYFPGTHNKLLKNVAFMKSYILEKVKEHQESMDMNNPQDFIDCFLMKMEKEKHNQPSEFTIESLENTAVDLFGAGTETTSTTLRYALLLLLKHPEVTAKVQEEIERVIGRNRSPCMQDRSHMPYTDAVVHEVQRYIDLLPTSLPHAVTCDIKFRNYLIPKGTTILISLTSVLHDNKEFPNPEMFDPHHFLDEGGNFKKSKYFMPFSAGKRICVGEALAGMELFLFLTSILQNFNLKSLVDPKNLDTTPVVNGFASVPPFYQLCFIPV
# [18] = Oral bioavailability in mouse at 3 mg/kg measured at 24 hrs by LC-MS/MS analysis; format: ADME, organism-based; conditions: in vivo
# [19] = Cmax in mouse at 10 mg/kg, po measured after 8 hrs by LC-MS/MS analysis; format: ADME, organism-based; parameters: route oral, time 8 hrs, dose 10 mg/kg; conditions: in vivo
# [20] = organism: Homo sapiens; test: Selectivity index, ratio of IC50 for inhibition of hERG receptor (unknown origin) to IC50 for antagonist activity at human CXCR4 receptor expressed in CCRF-CEM cells; format: cell-based
# [21] = Cmax in mouse at 30 mg/kg, po measured after 8 hrs by LC-MS/MS analysis; format: ADME, organism-based; parameters: route oral, dose 30 mg/kg, time 8 hrs; conditions: in vivo
# [22] = Clearence in mouse at 3 mg/kg, iv measured at 24 hrs by LC-MS analysis; format: ADME, organism-based; conditions: in vivo
# [23] = Antagonist activity at mAChR (unknown origin) expressed in CCRF-CEM cells assessed as inhibition of calcium release by calcium flux assay; format: cell-based; conditions: Homo sapiens
# [24] = biological target: Cytochrome P450 1A2 (Homo sapiens, UniProt P05177); test: Inhibition of CYP1A2(unknown origin); format: ADME
# Sequence of Cytochrome P450 1A2 (P05177 whole entry): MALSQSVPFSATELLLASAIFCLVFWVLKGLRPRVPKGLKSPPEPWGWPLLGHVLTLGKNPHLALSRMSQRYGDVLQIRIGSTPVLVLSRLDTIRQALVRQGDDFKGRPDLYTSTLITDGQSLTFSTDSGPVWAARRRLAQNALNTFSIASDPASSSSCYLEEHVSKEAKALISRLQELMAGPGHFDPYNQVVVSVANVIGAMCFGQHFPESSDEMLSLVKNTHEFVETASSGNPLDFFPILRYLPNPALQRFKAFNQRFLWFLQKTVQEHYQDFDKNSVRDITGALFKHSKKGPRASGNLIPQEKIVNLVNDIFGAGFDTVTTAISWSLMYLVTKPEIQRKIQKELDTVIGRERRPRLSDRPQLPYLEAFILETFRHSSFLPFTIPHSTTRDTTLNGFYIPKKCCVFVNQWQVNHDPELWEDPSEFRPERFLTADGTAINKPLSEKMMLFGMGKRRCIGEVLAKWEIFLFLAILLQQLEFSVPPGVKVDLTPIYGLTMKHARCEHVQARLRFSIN
# [25] = Drug concentration in mouse plasma at 10 mg/kg, po measured at 12 hrs by LC-MS/MS analysis; format: ADME, organism-based
# [26] = organism: Homo sapiens; test: Selectivity index, ratio of IC50 for inhibition of recombinant human CYP2D6 to IC50 for antagonist activity at human CXCR4 receptor expressed in CCRF-CEM cells; format: cell-based
# [27] = organism: Homo sapiens; test: Selectivity index, ratio of IC50 for inhibition of mu opioid receptor (unknown origin) to IC50 for antagonist activity at human CXCR4 receptor expressed in CCRF-CEM cells; format: cell-based
# [28] = Antagonist activity at human CXCR4 receptor expressed in CCRF-CEM cells assessed as inhibition of CXCL12-induced calcium release by calcium flux assay; format: cell-based
# [29] = organism: Homo sapiens; test: Selectivity index, ratio of IC50 for inhibition of alpha7 nicotinic acetylcholine receptor (unknown origin) to IC50 for antagonist activity at human CXCR4 receptor expressed in CCRF-CEM cells; format: cell-based
# [30] = organism: Homo sapiens; test: Selectivity index, ratio of IC50 for Inhibition of human ERG to IC50 for antagonist activity at human CXCR4 receptor expressed in CCRF-CEM cells; format: cell-based
# [31] = biological target: D(2) dopamine receptor (Homo sapiens, UniProt P14416); test: Inhibition of dopamine D2 receptor (unknown origin)
# Sequence of D(2) dopamine receptor (P14416 whole entry): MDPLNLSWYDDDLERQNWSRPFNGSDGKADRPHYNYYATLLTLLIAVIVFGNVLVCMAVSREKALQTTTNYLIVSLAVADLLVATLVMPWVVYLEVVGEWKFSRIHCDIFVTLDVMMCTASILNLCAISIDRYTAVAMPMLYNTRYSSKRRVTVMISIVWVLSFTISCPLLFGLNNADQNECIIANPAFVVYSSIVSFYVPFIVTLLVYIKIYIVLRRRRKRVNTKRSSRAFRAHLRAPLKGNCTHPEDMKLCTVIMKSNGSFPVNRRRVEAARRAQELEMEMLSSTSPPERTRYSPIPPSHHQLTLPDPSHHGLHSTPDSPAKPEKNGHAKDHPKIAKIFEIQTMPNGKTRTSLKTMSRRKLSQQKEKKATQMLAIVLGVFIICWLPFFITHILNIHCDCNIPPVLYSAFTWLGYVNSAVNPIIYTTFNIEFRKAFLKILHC
# [32] = test system: Human immunodeficiency virus 1; test: Antiviral activity against HIV-1 Z1800M E4.02 (R5) pseudovirus infected in human TZM-blcells assessed as reduction in viral infectivity measured after 48 hrs of postinfection by luminescence assay; format: functional, organism-based; conditions: Human immunodeficiency virus 1, Z1800M E4.02 (R5), TZM-bl
# [33] = biological target: Cytochrome P450 2C8 (Homo sapiens, UniProt P10632); test: Inhibition of CYP2C8 (unknown origin); format: ADME
# Sequence of Cytochrome P450 2C8 (P10632 whole entry): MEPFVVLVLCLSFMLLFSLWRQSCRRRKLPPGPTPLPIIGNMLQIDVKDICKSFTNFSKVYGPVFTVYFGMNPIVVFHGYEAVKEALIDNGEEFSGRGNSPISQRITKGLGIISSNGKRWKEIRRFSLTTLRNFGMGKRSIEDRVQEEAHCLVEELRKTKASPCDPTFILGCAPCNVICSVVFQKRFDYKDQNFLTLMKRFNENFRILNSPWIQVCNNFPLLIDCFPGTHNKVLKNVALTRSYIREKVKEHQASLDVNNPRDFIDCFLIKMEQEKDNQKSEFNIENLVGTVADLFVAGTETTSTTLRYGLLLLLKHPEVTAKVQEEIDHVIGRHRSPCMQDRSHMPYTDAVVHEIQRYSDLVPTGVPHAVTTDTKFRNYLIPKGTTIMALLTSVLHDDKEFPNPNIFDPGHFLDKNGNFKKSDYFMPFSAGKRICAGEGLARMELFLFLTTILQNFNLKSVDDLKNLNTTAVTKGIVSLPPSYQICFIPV
# [34] = Metabolic stability in rat liver microsomes assessed compound remaining measured after 10 mins in presence of NADPH; format: ADME, Microsome; conditions: read-out: Stability
compound,measurement,setting,value
CN(CCCCN(C[C@H]1Cc2ncccc2CN1)[C@H]1CCCc2cccnc21)C1CCC(F)(F)CC1,selectivity ratio,[1],> 1000
same,Selectivity Index,[2],> 1000
same,IC50,[3],> 30 µM
same,inhibition,[4],< 5%
same,IC50,[5],> 30 µM
same,inhibition,[6],< 5%
same,Papp at 4 h,[7],1.5 ×10⁻⁶ cm/s
same,inhibition,[8],< 5%
same,AUC,[9],190 h/ng/mL
same,Vd,[10],96.3 L/kg
same,AUC,[11],717 h/ng/mL
same,remaining at 10 min,[12],61%
same,Selectivity Index,[13],> 1000
same,IC50,[14],17 µM
same,IC50,[15],0.81 µM
same,Cmax,[16],116 ng/mL
same,IC50,[17],> 20 µM
same,bioavailability,[18],12.9%
same,Cmax,[19],54.8 ng/mL
same,Selectivity Index,[20],> 1000
same,Cmax,[21],169 ng/mL
same,clearance,[22],188 mL/min/kg
same,IC50,[23],> 17 µM
same,IC50,[24],> 20 µM
same,concentration at 12 h,[25],14.3 ng/mL
same,Selectivity Index,[26],540
same,Selectivity Index,[27],> 1000
same,IC50,[28],0.024 µM
same,Selectivity Index,[29],> 1000
same,Selectivity Index,[30],710
same,IC50,[31],> 30 µM
same,IC50,[32],> 10 µM
same,IC50,[33],> 20 µM
same,remaining at 10 min,[34],8%

# Reference: ChEMBL document CHEMBL5046278, “Synthesis and Evaluation of Novel Tetrahydronaphthyridine CXCR4 Antagonists with Improved Drug-like Profiles” (J Med Chem, 2022)
